Measured values from article PMC8040040 (ACS Medicinal Chemistry Letters, 2021).
Entries after “also recorded” stand apart in the source; their conditions may differ.

Columns and labels:
[1] = biological target: T1, RORγt Cys320Ala mutant (Homo sapiens, UniProt P51449, C320A); test: Ligation to RORγt Cys320Ala mutant, Q-TOF MS; assay type: binding
T1 sequence (P51449 265-507 C320A): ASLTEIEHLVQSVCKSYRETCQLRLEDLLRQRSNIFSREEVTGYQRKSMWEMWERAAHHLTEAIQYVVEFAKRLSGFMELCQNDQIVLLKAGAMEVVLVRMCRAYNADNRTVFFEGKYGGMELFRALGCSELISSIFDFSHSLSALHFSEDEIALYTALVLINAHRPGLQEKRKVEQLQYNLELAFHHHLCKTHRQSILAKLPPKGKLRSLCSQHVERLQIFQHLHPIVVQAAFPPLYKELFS

[2] = biological target: T2, ligated RORγt (covalent orthosteric probe at Cys320) (Homo sapiens, UniProt P51449); assay type: biochemical
T2 sequence (P51449 265-518): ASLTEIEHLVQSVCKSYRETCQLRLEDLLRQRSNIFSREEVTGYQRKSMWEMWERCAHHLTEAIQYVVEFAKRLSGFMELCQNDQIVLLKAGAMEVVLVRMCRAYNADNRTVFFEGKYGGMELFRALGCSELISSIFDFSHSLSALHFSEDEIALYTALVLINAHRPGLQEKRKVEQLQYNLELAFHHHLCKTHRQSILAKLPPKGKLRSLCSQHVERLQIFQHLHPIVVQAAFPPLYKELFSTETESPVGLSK

[3] = biological target: T3, RORγt LBD (Homo sapiens, UniProt P51449); test: TR-FRET coactivator recruitment assay, dose-response of covalent probes; assay type: biochemical; settings: TR-FRET dose-response curve plateau
T3 sequence (P51449 265-518): T2 sequence (P51449 265-518)

[4] = biological target: T4, PPARγ (Homo sapiens, UniProt P37231); test: Ligation; assay type: binding
T4 sequence (P37231 1-505): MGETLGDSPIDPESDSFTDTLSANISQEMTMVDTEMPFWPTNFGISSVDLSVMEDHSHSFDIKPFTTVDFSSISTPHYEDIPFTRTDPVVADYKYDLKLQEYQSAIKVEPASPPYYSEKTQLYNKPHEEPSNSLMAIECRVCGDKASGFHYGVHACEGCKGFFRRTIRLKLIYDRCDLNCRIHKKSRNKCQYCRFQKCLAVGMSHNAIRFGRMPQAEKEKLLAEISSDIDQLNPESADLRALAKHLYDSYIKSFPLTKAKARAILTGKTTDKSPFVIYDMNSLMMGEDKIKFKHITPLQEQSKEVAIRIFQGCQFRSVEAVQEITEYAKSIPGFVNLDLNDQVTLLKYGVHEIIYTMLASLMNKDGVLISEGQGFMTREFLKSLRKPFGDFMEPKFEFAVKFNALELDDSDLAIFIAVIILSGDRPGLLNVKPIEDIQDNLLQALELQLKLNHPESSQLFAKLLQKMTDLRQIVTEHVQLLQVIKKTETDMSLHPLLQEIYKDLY

SMILES	occlusion of the orthosteric site by the ligated probe [2]	Profile (full/partial inverse agonistic character) [3]	also measured
O=C(Nc1ccccc1)c1cc([N+](=O)[O-])ccc1Cl [Compound 1]	occlusion of the orthosteric binding site	–	Ligation to RORγt Cys320Ala mutant [1]: No ligation; Profile (full/partial inverse agonistic character) ([3]; listed as 1 GW9662): Full inv. ago.; Profile (full/partial inverse agonistic character) ([3]; listed as GW9662): full inverse agonist
Cc1ccccc1NC(=O)c1cc([N+](=O)[O-])ccc1Cl [Compound 9]	Clear occlusion of the orthosteric site	partial inverse agonistic behavior; also recorded: Partial inv. ago	–
CNC(=O)c1cc([N+](=O)[O-])ccc1Cl [Compound 2]	–	–	Ligation to PPARγ [4]: fully ligate
O=C(Nc1ccsc1)c1cc([N+](=O)[O-])ccc1Cl [Compound 11]	–	full inverse agonistic behavior; also recorded: Full inv. ago	–
